How the values were obtained:
PfKRS1 = details: cited from earlier work
[1] = system: Nluc-expressing transgenic C. parvum; assay: Anti-Cryptosporidium in vivo efficacy in IFN-γ-knockout mice (Nluc C. parvum); set-up: species or system mouse; details: 20 mg/kg orally once a day for 7 d
Protocol: INF-γ–knockout mice ([28], [29]) were infected orally with Nluc-expressing transgenic C. parvum oocysts. Treatment started upon patency 4 d postinfection (p.i.), and mice were treated orally once a day for 7 d. Infection was monitored daily by luciferase measurements in pooled feces of the entire cage. Mice were followed for 3 wk after completion of drug treatment. […] NOD SCID gamma mice were infected with C. parvum oocysts ([26]). Treatment started 7 d p.i., and mice were treated orally once a day for 7 d. The study was run with four mice per cage; infection was monitored by quantitative PCR on day eight for individual mice, and data are shown as oocysts per milligram of feces. […]
Data analysis was performed using GraphPad Prism 7.0 (GraphPad S oftware), Excel 2016 (Microsoft ) and R free so ftware (https://www.r-project.org) for data pl otti ng and s tati s ti cal model li ng. […]
5. 4 M eas urement of a nt i-Cryptosporidium in vivo efficacy in IFN-γ-knockout mice (Georgia) The Nl uc-C. parvum IFN-γ-knockout (IFN-γ KO) m ouse in vivo experiments were run in acco rdance with the publ i s hed method (22). Briefly, female C57BL/ 6 IFN-γ KO mi ce, aged 6–8 weeks were infected with 10,000 C. parvum UG A1 Nl uc (Vi naya k et al 2015, Natu re) tra ns g eni c oocys ts . […]

[2] = system: P. falciparum male/female gamete formation; assay: P. falciparum male/female gamete formation; format: cell-based; details: Plasmodium falciparum
Protocol: Thi s i s bas ed on methods previ ousl y reported (14). Mature P. falciparum stage V gametocytes (NF54)
were incubated with test compound for 24 h at 3 7°C i n 384-well plates containing complete culture
medi um (RPMI 1640, 25 mM HEPES, 2 g/l D-glucose, 2 g/l sodium bicarbonate, 50 mg/l
Gametogenesis was triggered by dis pens i ng 10 µl ookinete medium (RPMI 1640, 25 mM HEPES, 2 g/l
D-glucose, 2 g/l sodium bicarbonate, 50 mg/l hy pox ant hi ne, 100 µM xanthurenic acid) also
contai ni ng 2. 7 µg/ml anti-Pfs25-Cy3 into each well and cooling the plate on a metal block at 4 °C fo r
4 mi n. Fi fteen s l ater male gametogenesis was recorded by b ri ghtfi el d i magi ng usi ng ti m e s 6 object i v e
and then the pl ate stored at 2 6 °C for a fu rther 24 h to allow female gametes to develop. Female
gamete formation was assessed by fluorescence m icroscopy using x6 objective to identify anti-Pfs25-
gentian violet negative and positive controls.
3.1 3 Act iv it y a gains t Cry pt os pori diu m h omi nis (CALIBR)
Thi s i s bas ed on methods previ ousl y reported (10).

C. parvum Iowa strain = assay: In vitro inhibition of Cryptosporidium, C. parvum Iowa in HCT-8 cells (imaging); format: cell-based; details: HCT-8, read-out: C. parvum Iowa strain EC50
CYP2C9 = target: T1, CYP2C9 (Homo sapiens, UniProt P11712); assay: Fluorescence-based CYP inhibition, CYP2C9; format: in vitro ADME
T1 construct: purchased Cypex, Dundee, UK; host or cells: bacterial membranes (bactosomes)
T1 sequence (P11712 whole entry): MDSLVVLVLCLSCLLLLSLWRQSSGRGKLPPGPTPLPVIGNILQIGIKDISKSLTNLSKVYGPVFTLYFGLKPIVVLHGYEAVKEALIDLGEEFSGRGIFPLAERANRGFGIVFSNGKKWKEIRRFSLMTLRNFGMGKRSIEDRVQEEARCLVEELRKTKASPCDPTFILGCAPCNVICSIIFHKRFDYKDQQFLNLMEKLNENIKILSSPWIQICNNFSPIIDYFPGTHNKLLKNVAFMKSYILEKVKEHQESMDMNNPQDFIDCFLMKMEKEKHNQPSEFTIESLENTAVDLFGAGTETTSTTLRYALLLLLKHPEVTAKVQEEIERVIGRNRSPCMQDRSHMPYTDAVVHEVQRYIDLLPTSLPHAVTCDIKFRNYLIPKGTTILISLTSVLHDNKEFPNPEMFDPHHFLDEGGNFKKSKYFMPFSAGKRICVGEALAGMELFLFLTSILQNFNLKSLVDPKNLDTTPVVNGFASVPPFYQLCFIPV
Protocol: (§1) 4.7 F lu or e s ce nce-based CYP I nhibition usin g recombinantly expressed CYP b actosomes Fl uorogeni c C YP i nhi bi t i on s t udi es w ere c ondu ct ed at 37 °C i n 96-well, flat-bot t om, cl ear p ol y s t y rene pl at es. I ncubat i on mi xt ures cont ai ni ng Eas y C YP bact os omes (1000 pmol /ml , 10 mg /ml C y pex TM, Dundee, UK), fl uorogeni c substrate (Cypex TM) and 50 mM potas s i um phosphat e buffer (p H 7. 4) w er e prepared at t he fol l ow i ng fi nal concent rat i ons : C YP1A2, 5 pmol /ml + 35 µ M et hox y res orufi n (ER) ; CYP2C9, 10 pm ol/ml + 30 µM 7-methoxy-4-(tri fl uo romethy l )-coumari n (MFC ); C YP 2C 19, 5 pm ol /ml + 25 µM 3-cy ano-7-eth oxycoumarin (CEC); C YP 2D 6, 10 pmol /ml + 6 µM 7-meth oxy-4-(ami nomethy l )- coumari n (MAMC ); C YP 3A4, 10 pmol /ml + 1 µM diethoxyfluorescein (DEF) and 10 pmol /ml + 15 µM 7-benz y l ox y qui nol i ne (BQ ). […] 0125 ( 1A2 and 2C 9 onl y ) o r 0. 025 mg /ml (al l ot her i s oforms ). […] Positive control inhibitor, miconazole, was prepared as a 500 µM s olution in DMSO and similarly diluted.
(§2) For eac h i sofo rm, 2 20 µl of i ncubati on mi x was added to each wel l of a 96-well, flat-bot t om, cl ear pol y s t y rene pl at e. Al i quot s (5 µl) of each compound 5 conce ntrati on was then mi x ed wi th 220 µl of the incubation mix and pre-incubated at 37 °C for 5 min (final test compound concentration range: […]

44 receptor/enzyme panel = assay: Preliminary selectivity study in a 44 receptor/enzyme panel; details: at a concentration of 10 μM
[3] = In vivo pharmacokinetics in mouse
Description: 5. In vi vo pharmacokinetic and efficacy studies
5.1 In viv o ph armacokinetics (Dundee)
The l ev el of each comp ound i n mouse bl ood was determi ned by UPLC -MS/MS as previously re port e d (18). Pharmacokinetic parameters were derived from the blood c oncent ration time curve usi ng PKsol uti ons software v 2.0 (Summi t Research Servi ces, USA). […]

CYP2C19 = target: T2, CYP2C19 (Homo sapiens, UniProt P33261); assay: Fluorescence-based CYP inhibition, CYP2C19; format: in vitro ADME
T2 construct: purchased Cypex, Dundee, UK; host or cells: bacterial membranes (bactosomes)
T2 sequence (P33261 whole entry): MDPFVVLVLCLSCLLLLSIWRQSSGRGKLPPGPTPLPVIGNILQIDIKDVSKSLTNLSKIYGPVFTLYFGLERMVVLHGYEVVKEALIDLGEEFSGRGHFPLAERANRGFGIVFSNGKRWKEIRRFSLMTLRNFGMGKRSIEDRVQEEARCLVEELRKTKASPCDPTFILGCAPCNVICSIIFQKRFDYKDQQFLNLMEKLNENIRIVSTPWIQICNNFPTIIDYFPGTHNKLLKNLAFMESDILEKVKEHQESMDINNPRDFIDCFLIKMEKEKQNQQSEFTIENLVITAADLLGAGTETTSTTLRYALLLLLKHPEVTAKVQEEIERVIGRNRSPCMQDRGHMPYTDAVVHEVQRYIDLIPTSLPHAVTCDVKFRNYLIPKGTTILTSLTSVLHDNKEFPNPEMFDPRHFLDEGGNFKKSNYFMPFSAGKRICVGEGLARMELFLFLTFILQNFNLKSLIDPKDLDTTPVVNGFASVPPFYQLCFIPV
Protocol: as §1, §2

[4] = target: human ether-à-go-go related gene (hERG) K+ channel (Homo sapiens, UniProt Q12809); assay: hERG K+ channel assay (IonWorks patch clamp); format: cell-based
Sequence of human ether-à-go-go related gene (hERG) K+ channel (Q12809 whole entry): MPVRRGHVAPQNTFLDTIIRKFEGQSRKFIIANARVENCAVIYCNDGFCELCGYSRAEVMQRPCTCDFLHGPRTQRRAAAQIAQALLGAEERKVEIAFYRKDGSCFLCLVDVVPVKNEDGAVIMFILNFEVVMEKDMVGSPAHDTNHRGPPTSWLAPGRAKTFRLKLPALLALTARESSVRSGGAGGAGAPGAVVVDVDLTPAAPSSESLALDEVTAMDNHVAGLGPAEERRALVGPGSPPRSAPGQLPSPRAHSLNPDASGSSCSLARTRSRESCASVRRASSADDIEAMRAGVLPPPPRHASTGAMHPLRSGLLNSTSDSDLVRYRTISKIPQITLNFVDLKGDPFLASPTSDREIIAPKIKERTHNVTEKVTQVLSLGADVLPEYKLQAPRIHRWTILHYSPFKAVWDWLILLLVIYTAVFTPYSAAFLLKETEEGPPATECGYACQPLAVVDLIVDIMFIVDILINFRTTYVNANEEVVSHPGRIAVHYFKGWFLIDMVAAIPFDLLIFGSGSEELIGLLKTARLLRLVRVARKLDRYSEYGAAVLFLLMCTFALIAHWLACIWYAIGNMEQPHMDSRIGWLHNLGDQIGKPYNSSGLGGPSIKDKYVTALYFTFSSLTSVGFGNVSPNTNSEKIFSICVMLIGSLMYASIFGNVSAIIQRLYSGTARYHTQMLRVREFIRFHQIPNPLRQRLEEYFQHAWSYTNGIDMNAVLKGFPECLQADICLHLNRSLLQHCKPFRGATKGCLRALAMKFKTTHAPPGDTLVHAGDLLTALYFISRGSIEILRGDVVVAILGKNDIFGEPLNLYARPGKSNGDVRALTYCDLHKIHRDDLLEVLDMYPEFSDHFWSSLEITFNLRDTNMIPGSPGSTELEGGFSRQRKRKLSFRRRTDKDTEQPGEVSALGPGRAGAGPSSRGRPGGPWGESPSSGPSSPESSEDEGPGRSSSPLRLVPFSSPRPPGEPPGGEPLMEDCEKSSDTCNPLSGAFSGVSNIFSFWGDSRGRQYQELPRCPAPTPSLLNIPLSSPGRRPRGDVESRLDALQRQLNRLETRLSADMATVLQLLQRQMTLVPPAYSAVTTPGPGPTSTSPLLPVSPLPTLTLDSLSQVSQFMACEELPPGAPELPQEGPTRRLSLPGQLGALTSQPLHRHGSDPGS

Row | SMILES | selectivity for cytosolic PfKRS1 compared with HsKRS (PfKRS1) | parasite shedding ([1]; INF-γ–knockout mice) | reduction in parasite levels compared with control ([1]; INF-γ–knockout mouse, day 8) | EC50 [2] | EC50 (C. parvum Iowa strain) | IC50 (CYP2C9) | activity in 44 receptor/enzyme panel (44 receptor/enzyme panel) | compound present in mouse stools ([3]; after oral dosing) | AUC(0-t) ([3]; female, BALB/c, whole blood, po, orally, 10 mg/kg, read-out: Mouse PK orally AUC0–1440) | Cmax ([3]; female, BALB/c, whole blood, po, orally, 10 mg/kg, read-out: Mouse PK orally Cmax) | bioavailability ([3]; female, BALB/c, whole blood, po, orally, 10 mg/kg, read-out: Mouse PK orally F% (oral bioavailability)) | Tmax ([3]; female, BALB/c, whole blood, po, orally, 10 mg/kg, read-out: Mouse PK orally Tmax) | AUC ([3]; female, Balb/c, whole blood, iv, intravenously, 3 mg/kg, read-out: Mouse PK intravenously AUC (converted)) | half-life ([3]; female, Balb/c, whole blood, iv, intravenously, 3 mg/kg, read-out: Mouse PK intravenously T1/2 (converted)) | Vd ([3]; female, Balb/c, whole blood, iv, intravenously, 3 mg/kg, read-out: Mouse PK intravenously Vdss) | Mouse PK intravenously Clb ([3]; intravenously, 3 mg/kg) | Mouse PK orally F% (oral bioavailability) ([3]; orally, 10 mg/kg) | IC50 (CYP2C19) | EC50 [4]
1 | C[C@H]1CCC[C@H](C[C@H]2Cc3cc(O)cc(O)c3C(=O)O2)O1 [Compound 1, cladosporin, reference compound] | > 100 fold | – | – | – | – | – | – | – | – | – | – | – | – | – | – | – | – | – | –
2 | O=C(NCC1(O)CCC(F)(F)CC1)c1cc(=O)c2cc(F)ccc2o1 [Compound 5] | – | below detection level | 10,000 fold | > 1 µM | 1.3 µM | > 10 µM | no activity | 17 % of oral dose | 21700 to 50000 ng·h/mL | 5400 ng/mL | 100% | 2 h | 14800 ng·h/mL | 2.5 h | 1 L/kg | 3.4 mL⋅min^−1⋅kg^−1 | completely bioavailable | > 10 µM | > 100 µM
